Data set [1] deals with CHO-K1 cells. As to the kind of experiment: cells. The following applies: for CHOK1 48 h EC10: Chinese hamster; for EC50: Cricetulus griseus, CHO-K1, 48 h, read-out: CHOK1 48 h EC50. It counts as cell-based, Chinese hamster. Here is the method: (§1) A cell growth assay using the MTS reagent was conducted to assess the general toxicity of each chalcone compound. Briefly, cell growth was assayed in sterile 96-well microtiter plates (Costar 3599, Corning Inc., Corning, NY, USA) in the presence of each chalcone. Experiments were conducted in triplicate. In a typical experiment, there are two plates. The first is the control plate, which allows one to assess the starting cell population on the day of drug addition (Day 0). The second plate is the test plate where cells are plated and tested with different drug concentrations on Day 0. For example, either CHO cells or Hs27 cells were plated in a 200 µL volume at 1000 cells/well on both the control and test plates and incubated overnight to allow the cells to adhere. On Day 0, 1 μL of PBS was added to the control plate wells so that their total volume was 201 μL. MTS reagent (Promega Cell Titer 96 Aqueous non-radioactive cell proliferation reagent, Promega, Madison, WI, USA) was added (20 μL) to each well on the control plate, and that plate was incubated for 4 h in a 5% CO2 atmosphere at 37 °C and then read on the plate reader.
(§2) On Day 0, 1 μL of a 200× stock solution of each chalcone was added to the respected well on the test plate, and each condition was tested in triplicate. Drug solutions were prepared in advance in 100% DMSO and dosed so that the final DMSO concentration was 0.5%. For example, 1 μL of chalcone solution was added to the cells plated in each well in 200 μL of media. Of note, the respective chalcone addition occurred after an initial overnight incubation of each cell line in each well to reach Day 0 (the drugging day). After the chalcone was added, the cells were incubated in 5% CO2 for 48 h at 37 °C. After 48 h, the MTS reagent (Promega, Madison, WI, USA) was added (20 μL), and the test plates were incubated for an additional 4 h, and then, absorbance at 490 nm was measured on a BioTek Synergy MX plate reader. […] IC50 values were determined from the corresponding plot of relative absorbance at 490 nm vs. the drug concentration.
(§3) For highly colored materials like the chalcones, it is important to consider the contribution of the compound’s own absorbance to the MTS assay. To correct for the absorbance contribution of the chalcone itself, we measured each chalcone’s absorbance (Chalcone Abs) at 490 nm at the respective concentration (e.g., 10 µM) and subtracted the absorbance of the media background (blank Abs). This net value was then subtracted out of the Day 2 absorbance value to provide the % relative growth via the following equation:(1) % Relative Growth = (Day 2 Abs−Day 2 blank Abs)−Chalcone Abs−blank Abs−(Day 0 Abs−Day 0 blank Abs)/(Day 2 Control Abs −Day 2 blank Abs)−(Day 0 Abs−Day 0 blank Abs) ×100%
With the chalcones in hand, we then evaluated their growth-inhibition properties in Chinese hamster ovary (CHO-K1) cells and human Hs27 fibroblast cells. […] The results are shown in Table 2 along with a SAR summary of our findings in the host Hs27 cells.

Data set [2] has as its system Hs27 cells. As to the kind of experiment: 48 h MTS growth inhibition assay in Hs27 cells. It counts as cell-based, human. The following applies: for EC50: Homo sapiens, HS27, 48 h, read-out: Hs27 48 h EC50; for Hs27 48 h EC10: highest concentration giving 90% relative new cell growth after 48 h, 0.5% DMSO. The method, then: as §1, with “Briefly, cell growth was assayed in sterile 96-well microtiter plates (Costar 3599, Corning Inc., Corning, NY, USA) in the presence of each chalcone.” left out
as §2, §3
With the chalcones in hand, we then evaluated their growth-inhibition properties in Chinese hamster ovary (CHO-K1) cells and human Hs27 fibroblast cells.
On the technique in general: Tetrazolium assays rely on reduction of a dye to a coloured formazan, in cell work by metabolically active cells.

The test system of data set [3] is PIV5-GFP. As to the kind of experiment: PIV5-GFP viral GFP expression in Hs27 cells by flow cytometry. It is filed as cell-based, parainfluenza virus 5. The following applies: 10 µM; Hs27 cells infected with PIV5-GFP. The method, then: Parainfluenza virus 5 (PIV5) expressing green fluorescence protein (GFP) was derived from cDNA, grown at 37 °C in Madin–Darby bovine kidney (MDBK) cells and titered on CV-1 (African green monkey kidney) cells with a fibroblast morphology as previously described. MDBK and CV-1 cells were the kind gift of Dr. Robert Lamb (Northwestern University). Cells were infected with virus diluted in DMEM supplemented with 10% bovine serum albumin (BSA) for 1 h or mock infected with media alone. Following incubation, cells were washed with phosphate-buffered saline (PBS) and cultured in DMEM supplemented with 2% heat-inactivated (HI) FBS.
Chalcone treatments were performed in DMEM supplemented with 10% HI FBS at the indicated concentrations and for indicated periods of time. Chalcone stocks were reconstituted in 100% dimethyl sulfoxide (DMSO) at a concentration of 10 mM and were serially diluted to working concentrations in DMSO. DMSO control treatments to test the effect of the vehicle were performed at volumes corresponding to the volume of chalcone added during each experiment (i.e., 1 µL chalcone DMSO solution/1 mL DMEM [10 µM] utilized alongside the DMSO control of 1 µL/1 mL DMEM). For cytotoxicity assays, untreated controls were subtracted from DMSO and chalcone sample values to account for the background signal.
For cytotoxicity assays, cells were stained with propidium iodide (PI) at a dilution of 1:100. Cell viability was determined via flow cytometry using the CytoFLEX (Beckman Coulter, Brea, CA, USA). CytExpert software (Beckman Coulter, version 2.4) was used to analyze independent events. PIV5 infection was monitored using flow cytometry via the FITC channel by analyzing GFP expression of individual cells. ZIKV infection was monitored utilizing Flavivirus group antigen–antibody (D1-4G2-4-15; Novus Biologicals, Littleton, CO, USA) staining for the ZIKV envelope protein. Cells were fixed and permeabilized using eBioscience Intracellular Fixation and Permeabilization Buffer (Invitrogen, Thermo Fisher Scientific, MA, USA) according to the manufacturer’s instructions. Secondary staining was performed using an anti-Alexa Fluor 488 (AF488) antibody (Invitrogen, Thermo Fisher Scientific, MA, USA). OC43 infection was monitored utilizing a primary antibody targeted toward the OC43 nucleocapsid protein (NP, MAB9013, Sigma-Aldrich, St. Louis, MO, USA). Secondary staining was performed using an AF488 antibody. Cells were fixed and permeabilized as previously described. LACV infection was monitored utilizing an anti-LACV Gc 807.31ab antibody kindly provided by Andrew Pekosv. Secondary staining was performed using an AF488 antibody. Cells were fixed and permeabilized as previously described.
To measure the effect of chalcone treatment on PIV5 virus growth, Hs27 cells were infected with PIV5-GFP. This engineered negative sense single-stranded RNA virus expresses GFP, which serves as a genome-encoded protein readout. After entering a cell, PIV5 must first undergo primary transcription to convert its genome into mRNA. As genome replication begins, nascent genomes then become templates for further conversion to mRNA and viral gene expression becomes amplified in a process called secondary transcription. For viral proteins to be detectable in cell culture, this amplification must first take place, making the expression of GFP a direct indicator of whether secondary transcription has successfully occurred. […] As shown in the representative data in Figure 4A, ~82% of DMSO-treated PIV5-GFP infected cells were positive for GFP expression. This was reduced to ~2% GFP-positive cells after treatment with 8o. […] These chalcones were therefore selected for further screening for cytotoxicity.
The GFP IC50 was defined as the concentration of chalcone required to inhibit the GFP expression (as measured via flow cytometry) by 50% when compared to DMSO-treated cells. […]
A general note: Flow cytometry measures light scatter and fluorescence of single cells or particles in a stream.

In data set [4] the test system is mTOR signaling. As to the kind of experiment: Western blot of prps6 and rps6 as readouts of mTOR signaling in PANC-1 cells. The conditions noted are these: 72 h, chalcones 10 µM, rapamycin 10 nM. It is filed as cell-based. Here is the method: PANC-1 cells were cultured in 6-well dishes and were lysed using modified radioimmunoprecipitation assay (RIPA) buffer (20 mM HEPES, pH 7.0, 150 mM NaCl, 1 mM EDTA, 1% NP-40, 1% deoxycholate, and 0.1% sodium dodecyl sulfate [SDS]) containing a complete protease inhibitor cocktail (Roche, Mannheim, Germany) and PhosSTOP phosphatase inhibitor cocktail (Roche, Mannheim, Germany). Protein concentrations were determined using the bicinchoninic acid (BCA) protein assay kit (Pierce, Rockford, IL, USA) according to manufacturer’s instructions. Cell lysates with 25 µg of protein were resolved on 12% sodium dodecyl sulfate-polyacrylamide gel electrophoresis (SDS-PAGE) gels and electro-transferred onto polyvinylidene difluoride (PVDF) membranes (Trans-Blot Turbo Transfer System, BioRad, Hercules, CA, USA). The samples were probed with rabbit monoclonal antibodies for the P-rps6 (1:1000) protein (Cell Signaling, Danvers, MA, USA) and mouse monoclonal antibodies for rps6 (1:1000) (Cell Signaling) and β-actin (1:5000) (Abcam, Waltham, MA, USA) proteins. Blots were visualized using anti-rabbit or anti-mouse horseradish peroxidase (HRP)-conjugated antibodies (Cell Signaling) and chemiluminescence reagent (Thermo Fisher Scientific, Waltham, MA, USA).
PANC-1 cells were chosen for this study as they are highly dependent on mTOR for their growth. PANC-1 cells were cultured and treated with the positive control rapamycin (10 nM) and chalcones NM5, 8a, 8o, 8s, 8v, and 8w (10 μM) for 72 h. Rapamycin and the chalcones were dissolved in 100% DMSO and dosed so that the final DMSO concentration was 0.1%. Cell lysates were collected and analyzed to determine the relative protein expression levels of rps6, prps6, and β-actin as a loading control (see Figure 12).
In general terms: Immunoblotting shows a protein as a band on a membrane.

The test system of data set [5] is mTOR signaling. On the set-up: method as in PMID 28442256. The following applies: SGR2 and Huh7.5 cell lines; cited from earlier work.

The values below come from article PMC12467382, “Synthesis and Bioevaluation of Chalcones as Broad-Spectrum Antiviral Compounds Against Single-Stranded RNA Viruses” (Biomolecules, 2025).

Broadly, the EC50 is the concentration that produces a half-maximal response.

The structures appear in SMILES notation.

In the case of `CCOc1ccc(Br)cc1/C=C/C(=O)c1c(O)cccc1OC` [Chalcone 8q, (2E)-3-(5-Bromo-2-Ethoxy-Phenyl)-1-(2-Hydroxy-6-Methoxy-Phenyl)-Propenone], in data set [1], the “CHOK1 48 h EC10” value is reported as 4.3 ± 0.4 µM and the EC50 turned out to be 6 ± 0.3 µM. In data set [2], the EC50 is 9.9 ± 1 µM and the “Hs27 48 h EC10” value amounted to 2.7 ± 0.04 µM.
On to `CCOc1ccc(Br)cc1/C=C/C(=O)c1c(O)cccc1OCCC(C)C` [Chalcone 8r, (2E)-3-(5-Bromo-2-Ethoxy-Phenyl)-1-[2-Hydroxy-6-(3-Methyl-Butoxy)-Phenyl]-Propenone], for which, in data set [3], the “% GFP relative to DMSO treated (10 µM)” value was determined as 108.7%. In data set [1], the “CHOK1 48 h EC10” value is reported as 4.7 ± 0.4 µM and the EC50 amounted to 6.8 ± 0.7 µM. In addition, in data set [2], the EC50 worked out at 16.9 ± 2 µM and the “Hs27 48 h EC10” value is 9.4 ± 0.7 µM.
Consider `CCOc1ccc(Br)cc1/C=C/C(=O)c1c(O)cccc1OCCc1ccccc1` [Chalcone 8t, (2E)-3-(5-Bromo-2-Ethoxy-Phenyl)-1-[2-Hydroxy-6-Phenethyloxy]-Propenone], for which, in data set [3], the “% GFP relative to DMSO treated (10 µM)” value is listed as 84.9%. For the same compound, in data set [1], the “CHOK1 48 h EC10” value amounted to 1.1 ± 0.1 µM and the EC50 came out at 2.6 ± 0.2 µM. Also, in data set [2], the EC50 was 10.3 ± 0.5 µM and the “Hs27 48 h EC10” value stood at 6.4 ± 0.5 µM.
For `COc1ccc(Br)cc1/C=C/C(=O)c1c(O)cccc1OCCc1ccccc1` [Chalcone 8u, (2E)-3-(5-Bromo-2-Methoxy-Phenyl)-1-[2-Hydroxy-6-Phenethyloxy]-Propenone], in data set [1], the “CHOK1 48 h EC10” value was 1.0 ± 0.1 µM and the EC50 was determined as 4.3 ± 0.3 µM. Besides, in data set [2], the EC50 stood at 4.9 ± 0.6 µM and the “Hs27 48 h EC10” value is given as 3.4 ± 0.5 µM.
As for `COc1ccc(/C=C/C(=O)c2c(O)cccc2OCc2ccccc2)c(OC)c1OC` [Chalcone 8y, (2E)-1-(2-Benzloxy-6-Hydroxy-Phenyl)-3-(2,3,4-Trimethoxy-Phenyl)-Propenone], in data set [1], the “CHOK1 48 h EC10” value came out at 7.2 ± 0.6 µM and the EC50 came out at 15.8 ± 1 µM. For the same compound, in data set [2], the concentration for a half-maximal effect (EC50) amounted to 7.7 ± 0.2 µM and the “Hs27 48 h EC10” value worked out at 6.3 ± 0.2 µM.
Regarding `COc1ccc(/C=C/C(=O)c2cc(Br)cc(Br)c2O)cc1OC` [NM5, (2E)-1-(3,5-Dibromo-2-hydroxyphenyl)-3-(3,4-dimethoxyphenyl)-2-propen-1-one, reference compound], in data set [4], the “prps6 expression relative to DMSO control” value is recorded as “stimulate this prps6 mTOR readout”. In addition, in data set [1], the “CHOK1 48 h EC10” value is listed as 1.1 ± 0.1 µM and the EC50 turned out to be 6.2 ± 0.3 µM. Also, in data set [2], the EC50 was 1.8 ± 0.1 µM and the “Hs27 48 h EC10” value came to 1.0 ± 0.1 µM. The “Effect on mTOR signaling” value in data set [5] is given as “inhibit mTOR signaling”.
As for `CO[C@H]1C[C@@H]2CC[C@@H](C)[C@@](O)(O2)C(=O)C(=O)N2CCCC[C@H]2C(=O)O[C@H]([C@H](C)C[C@@H]2CC[C@@H](O)[C@H](OC)C2)CC(=O)[C@H](C)/C=C(\C)[C@@H](O)[C@@H](OC)C(=O)[C@H](C)C[C@H](C)/C=C/C=C/C=C/1C` [rapamycin, reference compound], in data set [4], the “prps6 expression relative to DMSO control” value is “loss of prps6 expression” and the “total rps6 protein expression relative to DMSO control” value is recorded as “no significant difference”.
